Assay results from patent US9796907B2, “Invert emulsion gravel pack fluid and method” (Halliburton Energy Services, Inc., priority 2013, dated 2017).

Tested on: marine juvenile fish Cyprinodont varieties
Assay: Ecotoxicity to marine juvenile fish
Type: in vivo
Excerpt: In addition, the fluid of the disclosure should have an acceptable health, safety, and environmental profile. The dimer diamine (or fatty acid dimer diamine) and polyurea components comprising the suspension agent are environmentally compatible.

Structure (SMILES): CCCCCCCCCC(CCCCCCCCN)C(CCCCCCCC)CCCCCCCCCN (stereo not shown) [fatty acid dimer diamine, C36 fatty dimer diamine]
- ecotoxicity to marine juvenile fish: low ecotoxicity
